Measurements: patent publication US4952591A, “Anti-ulcer urea derivatives” (Kyorin Pharmaceutical Co., Ltd., priority 1987, dated 1990)

Legend:
[1] = test system: Gastric secretion (acid output); assay: Gastric antisecretion (Acute fistula method, histamine-stimulated, pylorus-ligated rats); type: in vivo, Male Donryu rats; conditions: i.d., histamine 10 mg/kg i.m.
Protocol: Male Donryu rats, weighing about 200 g, were fasted for 24 hours before the experiment. […] The gastric cannula was implanted in the forestomach (Acute fistula method). Gastric secretion from cannula was collected into test tubes every one hour and the acid output was titrated. Histamine (10 mg/kg) was intramuscularly given after the first collection of gastric juice. Drugs were intraduodenally given after the second collection of the gastric juice.

[2] = test system: 0.6 N HCl-induced gastric lesions; assay: Gastric cytoprotection (0.6 N HCl-induced gastric lesions); type: in vivo, Male Donryu rats; conditions: p.o., an hour before 0.6 N HCl, lesion length
Protocol: Male Donryu rats, weighing about 200 g, were deprived of food and water for 24 hours. One ml of 0.6N HCl solution was given orally and the animals were killed an hour later. […] The length (mm) of each gastric lesion was measured under a dissecting microscope, summed, and used as an index for evaluation. Drugs were orally given an hour before 0.6 N HCl solution treatment.

[3] = biological target: T1, Histamine H2-receptor (Cavia porcellus, UniProt P47747); assay: Histamine H2-receptor antagonism (isolated right atrium, positive chronotropic effect of histamine); set-up: species or system Male Hartley guinea-pigs; conditions: guinea-pig right atrium, 32±1° C., drugs added 5 minutes before histamine; read-out: pA2 (converted)
T1 construct: The right atrium was dissected and suspended at 0.5 g tension in a 10 ml organ bath; from tissue; host or cells: isolated right atrium of male Hartley guinea-pigs
T1 sequence (P47747 whole entry): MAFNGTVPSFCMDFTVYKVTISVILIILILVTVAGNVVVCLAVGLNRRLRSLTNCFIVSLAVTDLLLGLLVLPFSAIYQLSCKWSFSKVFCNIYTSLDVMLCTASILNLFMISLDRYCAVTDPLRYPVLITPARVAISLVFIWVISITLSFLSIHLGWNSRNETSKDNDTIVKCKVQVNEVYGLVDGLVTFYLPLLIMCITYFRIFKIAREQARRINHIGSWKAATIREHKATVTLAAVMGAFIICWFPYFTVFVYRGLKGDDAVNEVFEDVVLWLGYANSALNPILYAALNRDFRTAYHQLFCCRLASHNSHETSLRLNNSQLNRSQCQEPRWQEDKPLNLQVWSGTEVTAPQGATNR
Protocol: Male Hartley guinea-pigs, weighing between 300 and 400 g, were used in the experiment. The right atrium was dissected and suspended at 0.5 g tension in a 10 ml organ bath containing Krebs-Henseleit's solution, kept at 32±1° C. and bubbled with the gas mixture (95 % O2 and 5 % CO2). Contractions were recorded with a force-displacement transducer through a strain gange. […] Drugs were added into the organ bath 5 minutes before histamine treatment.

SMILES | Kb [3] [µM] | Inhibition (%) ([1]; Dose 25 mg/kg) | Inhibition (%) ([2]; Dose 25 mg/kg) | Inhibition (%) ([2]; Dose 50 mg/kg) | Inhibition (%) ([2]; Dose 6 mg/kg) | Inhibition (%) ([1]; Dose 5 mg/kg) | further results
CN/C(=N/CCSCc1nc[nH]c1C)NC#N [Cimetidine, reference compound] | – | 80.0 | – | – | – | – | Inhibition (%) ([1]; Dose 12.5 mg/kg): 51.9%; Inhibition (%) ([1]; Dose 50 mg/kg): 100.0%; Inhibition (%) ([2]; Dose 100 mg/kg): 22.0%
COc1ccc(NC(=O)NCCCOc2cccc(CN3CCCCC3)c2)cc1 [Example 1, N-(4-Methoxyphenyl)-N'-[3-(3-piperidinomethylphenoxy)propyl]urea] | 0.263 | 98.5 | 30.1 | 45.1 | – | – | Inhibition (%) ([1]; Dose 12.5 mg/kg): 70.7%; Inhibition (%) ([2]; Dose 100 mg/kg): 67.4%
CCCNC(=O)NCCCOc1cccc(CN2CCCCC2)c1 [Example 8] | 0.0417 | – | – | – | 55.4 | – | Inhibition (%) ([1]; Dose 1 mg/kg): 49.5%; Inhibition (%) ([1]; Dose 3 mg/kg): 77.5%; Inhibition (%) ([1]; Dose 6 mg/kg): 81.3%; Inhibition (%) ([2]; Dose 1 mg/kg): 26.4%; Inhibition (%) ([2]; Dose 16 mg/kg): 67.4%

Continued, in another order:

Kb [3] [µM] | SMILES | Inhibition (%) ([1]; Dose 25 mg/kg) | Inhibition (%) ([2]; Dose 25 mg/kg) | Inhibition (%) ([2]; Dose 50 mg/kg) | Inhibition (%) ([2]; Dose 6 mg/kg) | Inhibition (%) ([1]; Dose 5 mg/kg) | further results
0.0661 | CCNC(=O)NCCCOc1cccc(CN2CCCCC2)c1 [Example 16, N-Ethyl-N'-[3-(3-piperidinomethylphenoxy)propyl]urea] | – | 78.0 | 89.4 | 52.6 | 49.5 | Inhibition (%) ([1]; Dose 10 mg/kg): 77.2%
0.0355 | CNC(=O)NC/C=C\COc1cccc(CN2CCCCC2)c1 [Example 29] | – | 73.8 | – | – | 80.8 | Inhibition (%) ([1]; Dose 3 mg/kg): 39.1%; Inhibition (%) ([2]; Dose 5 mg/kg): 49.3%
0.251 | CCOc1ccc(NC(=O)NCCCOc2cccc(CN3CCCCC3)c2)cc1 [Example 51, N-(4-Ethoxyphenyl)-N'-[3-(3-piperidinomethylphenoxy)propyl]urea] | 97.1 | – | 63.4 | – | – | Inhibition (%) ([1]; Dose 1 mg/kg): 29.0%; Inhibition (%) ([1]; Dose 6 mg/kg): 52.7%
0.0275 | CC(C)NC(=O)NCCCOc1cccc(CN2CCCCC2)c1 [Example 54] | – | 73.0 | 70.1 | 36.1 | 68.2 | Inhibition (%) ([1]; Dose 2 mg/kg): 16.1%; Inhibition (%) ([1]; Dose 10 mg/kg): 78.8%
